From patent US12448393B2, “Use of novel compound, for preventing, improving or treating amyotrophic lateral sclerosis” (PRG S&TECH INC., priority 2019, dated 2025)
“Also recorded” adds a separate entry of the source.

Assays:
SOD1 [1] = test: Western blot / native gel analysis of SOD1 aggregation; format: cell-based, human; conditions: Table 1; effect on SOD1 aggregation, native / non-SDS-PAGE gel
Method: Using RIPA buffer (50 mM Tris-Cl, pH 7.5, 150 mM NaCl, 1% NP-40, 0.1% SDS and […]) for SDS-PAGE and lysis buffer (50 mM Tris-Cl, pH 7.5, 150 mM NaCl, 0.3% NP-40) for Native-PAGE, proteins were extracted from cells. Samples were separated by the SDS-PAGE or the Native-PAGE and transferred to PVDF membrane. Blotted membrane was blocked with TBST buffer including 3% skim milk for 1 hour, and reacted with specific antibodies. The reacted antibodies were detected by ECL and X-ray film exposure. Antibodies used in the present disclosure are as follows: pan-SOD1 (GTX100554) was purchased from Genetex (California, USA). Misfolded SOD1-specific antibody (B8H10) was purchased from MediMabs (Montreal, Canada). Actin (sc-1616), GST (sc-138), and GFP (Green fluorescent protein; sc-8036) were purchased from Santa Cruz biotechnology (Santa Cruz, CA, USA). TDP-43 antibody (10782-2-AP) was purchased from Proteintech (Rosemont, IL, USA). Anti-FLAG (Sigma; F3165) was purchased from Sigma Aldrich (St, Louis, Mo, USA), and HRP-conjugated goat anti-mouse, goat anti-rabbit, and mouse anti-goat antibodies (Pierce, Thermo Fisher Scientific, Inc., Rockford, IL, USA) were used as secondary antibodies.
(§1) GFP-SOD1 (WT, G85R, G93A), non-tagged SOD1 (WT, A4V, G37R, G85R, G93A) and tdTomato-TDP43 expression vectors were purchased from Addgene (Cambridge, MA, USA). Transfection was performed using Jet-PEI reagent (JetPEI; Polyplus transfection, New York, NY, USA) according to the manufacturer's protocol. Briefly, vectors were mixed with JetPEI reagent in 150 mM NaCl buffer, and then mixture was reacted for 15 minutes. The mixture was added to cells in serum-free medium and reacted for 4 hours. After reaction, the cells were replaced with a culture medium supplemented with 10% FBS.

[2] = test system: WT-SOD1 and mutant SOD1-GST (A4V, G37R, G85R, G93A); test: ELISA compound screening for binding inhibitor between WT-SOD1 and mutant SOD1; parameters: species or system human; conditions: Table 1; compounds at final concentration of 50 μM
Method: For compound screening, the present inventors applied an ELISA assay system. To select a binding inhibitor between WT-SOD1 and mutant SOD1, the present inventors used 0.5% paraformaldehyde (PFA) to fix WT-SOD1 recombinant protein on a 96-well plate. The plate was dried, washed with phosphate-buffered saline (PBS), and reacted with the compounds at a final concentration of 50 μM, and then mutant SOD1-GST (A4V, G37R, G85R, G93A) proteins were added. After 2 hours of reaction, the 96-well plate was washed with PBS and blocked with 3% skim milk to prevent non specific reaction. The plate was reacted with anti-GST antibody (diluted at 1:10,000) for 1 hour, and then reacted with anti-mouse IgG-HRP (diluted at 1:50,000) for 1 hour. After washing twice, the plate was reacted with a 3,3′,5,5′-tetramethylbenzidine (TMB) solution (Calbiochem) for 30 minutes and a stop solution (1N H2SO4) for 30 minutes. Finally, the present inventors analyzed values using an ELISA reader (450 nm absorbance). Negative control (−; red line) was reacted without mutant SOD1, and positive control (+; blue line) was reacted with mutant SOD1 without the compounds.
To prepare recombinant proteins, human SOD1 (WT, A4V, G37R, G85R, G93A) was added to EcoRI and HindIII sites of pGEX-TEV vector, an improved vector made by adding a TEV protease cleavage site to pGEX-4T1 (Invitrogen). The recombinant proteins were expressed as GST-fusion proteins in Escherichia coli (E. coli) strain BL21 (DE3). The proteins were purified by glutathione-affinity chromatography.

[3] = Pharmacokinetics (PK) analysis; format: in vivo; conditions: for PK study BA: Table 1
SOD1^G93A-Tg mice = test: In vivo drug treatment of ALS model mice (grip strength, behaviour, histology, survival); parameters: species or system mouse; conditions: for effects in ALS model mice: FIGS. 11A and 11B, summary statements; for In vivo: Table 1, ALS model mice
Method: An experiment was performed in a facility approved by the Association for Laboratory Animal Care Assessment and Accreditation in accordance with the animal policy approved by Busan National University. B6SJL-Tg (SOD1^G93A) mice were purchased from Jackson Laboratory (Stock No: 002726). All mice were maintained under temperature and light-controlled conditions (20˜23° C., light-dark cycle 12 hr-12 hr) and were provided with sterile food and water.
Vehicle (DMSO) and SLC-B036 (10 mg/kg, 20 mg/kg) were administered to 12-week-old or 14-week-old SOD1^G93A mice via intraperitoneal injection twice weekly for 6 weeks. Control mice were treated under the same conditions. For histological analysis, mice were sacrificed at 18 weeks. After dissection of mice, spinal cord was fixed with 4% paraformaldehyde for 48 hours according to basic tissue processing procedures, and embedded in a paraffin block. An embedded tissue (cervical region of the spinal cord) was cut into 5 μm with a Leica microtome, and transferred to an adhesive-coated slide (Marienfeld laboratory glassware, Germany). After deparaffinization and rehydration, the slide was stained with hematoxylin and eosin to determine the number of spinal nerves.
For behavioral experiment, grip strength was checked every 2 weeks using a grip strength meter. The mice were allowed to grasp a tension bar with their forelimbs, and then their tails were slowly pulled until they released the bar. To observe motility, respiration, and quadriplegia of the mice, image analysis was performed at the end of administration (18-20 weeks).

neurons = test: Cell viability measurement (MTT), neurons; format: cell-based; conditions: FIG. 9A
Method: (§2) HEK293 cells were purchased from American Type Culture Collection (ATCC, Manassas, VA, USA) and maintained at 37° C. and 5% CO2 in DMEM liquid medium including 10% fetal bovine serum and 1% penicillin-streptomycin. SK—N—SH cells were purchased from Korean Cell Line Bank (KCLB, Seoul, South Korea) and maintained in MEM medium including 10% fetal bovine serum, 1% antibiotic, 25 mM HEPES, and 300 mg/L L-Glu. Human fibroblasts (person) were purchased from Coriell Cell Repositories (New Jersey, USA) and maintained in EMEM including 15% FBS, 2 mM Glutamine, and 26 mM HEPES without antibiotics. Thapsigargin (ER calcium scavenger: CAS 67526-95-8) was purchased from Calbiochem (Darmstadt, Germany). CoCl2 (hypoxia-inducer: C8661) was purchased from Sigma Aldrich (St, Louis, Mo, USA).
(§3) To check cells viability, the cells were reacted with 0.5 mg/ml MTT solution (475989; Merck, Darmstadt, Germany) at 37° C. for 4 hours. After removing residual solution and washing with PBS, precipitate was dissolved in 200 μl DMSO, and quantified by measuring absorbance at 540 nm.

SOD1 [4] = test: Immunofluorescence staining of SOD1 aggregation and misfolded SOD1; format: cell-based, human; conditions: Table 1; IF staining of SOD1
Method: Cells on coverslip were washed with PBS, fixed with 4% PFA at room temperature for 30 minutes, and then infiltrated with 0.1% Triton X-100/PBS for 10 minutes. The cells were treated with blocking solution (anti-Human Antibody 1:500 dilution in PBS) for 1 hour, and then cells were reacted with anti-pan SOD1 (1:400 dilution), misfolded SOD1 (B8H10; 1:200 dilution in blocking solution) at 4° C. overnight. Finally, the cells were reacted with FITC and rhodamine-conjugated secondary antibody at 4° C. for 6 hours. Nuclei were stained with 4,6-diamidino-2-phenylindole (DAPI), and endoplasmic reticula (ERs) were stained with ER-Tracker Red dye for 10 minutes. The cells were washed 3 times with PBS, and then coverslips were mounted with mounting solution [H-5501; Vector Laboratories (Burlingame, CA, USA)] and analyzed by fluorescence microscopy (Zeiss).
as §1

normal human fibroblasts = test: Cell viability measurement (MTT), normal fibroblasts; format: cell-based; conditions: for cytotoxic effect in normal fibroblasts: MTT, FIG. 4E, FIG. 9B; for Toxicity (MTT): Table 1, cell type not given, neurons (FIG. 9A) and normal fibroblasts (FIG. 9B)
Method: as §2, §3

SMILES | Western Blot (SOD1 [1]) | ELISA [2] | PK study BA [3] | effects in ALS model mice (SOD1^G93A-Tg mice) | In vivo (SOD1^G93A-Tg mice) | cytotoxicity in neurons (neurons) | Immuno-fluorscence (SOD1 [4]) | cytotoxic effect in normal fibroblasts (normal human fibroblasts) | Toxicity (MTT) (normal human fibroblasts) | PK profile ([3]; FIG. 10)
COc1cc(/C=C/CO[C@H]2Cc3cc4ccc(=O)oc4cc3OC2(C)C)ccc1O [PRG-A-02, (S,E)-7-((3-(4-hydroxy-3-methoxyphenyl)allyl)oxy)-8,8-dimethyl-7,8-dihydro-2H,6H-pyrano[3,2-g]chromen-2-one] | Effect ○ | Effect ○ | (0.3%) | good effects | Effect ○ | did not exhibit cytotoxicity | Effect ○ | did not exhibit cytotoxicity | No | 
CC1(C)Oc2cc3oc(=O)ccc3cc2C[C@@H]1OC(=O)/C=C/c1ccc(F)cc1 [PRG-A-03, (S)-8,8-dimethyl-2-oxo-7,8-dihydro-2H,6H-pyrano[3,2-g]chromen-7-yl (E)-3-(4-fluorophenyl) acrylate] | Effect ○ | Effect ○ | (3.7%) | good effects | Effect ○ | did not exhibit cytotoxicity | Effect ○ | did not exhibit cytotoxicity | No | 
COc1cc(/C=C/CO[C@H]2Cc3cc4ccc(=O)oc4cc3OC2(C)C)ccc1[N+](=O)[O-] [PRG-A-04, (S,E)-7-((3-(3-methoxy-4-nitrophenyl)allyl)oxy)-8,8-dimethyl-7,8-dihydro-2H,6H-pyrano[3,2-g]chromen-2-one] | Effect ○ | Effect ○ | 60.7% | Excellent effects; also recorded: good effects | Effect ○ | did not exhibit cytotoxicity | Effect ○ | did not exhibit cytotoxicity | No | appropriate PK profile
